# Assay results: PubChem BioAssay AID1259407 (Chemical Carcinogenesis Research Information System (CCRIS), 2018)
# The source made the active and inactive calls. How the calls were made is not given here.
# System: CCRIS mutagenicity, Ames/micronucleus/aberration tests
# Experiment: CCRIS mutagenicity studies
structure (smiles),measurement,setting,value
C=CCc1ccc2c(c1)OCO2,mutagenic call,"Test System: AMES SALMONELLA TYPHIMURIUM, Strain/Indicator: TA97, Metabolic Activation: HAMSTER LIVER S-9, AROCLOR 1254 (10%), Method: PREINCUBATION",inactive; negative
same,mutagenic call,"Test System: AMES SALMONELLA TYPHIMURIUM, Strain/Indicator: TA97, Metabolic Activation: HAMSTER LIVER S-9, AROCLOR 1254 (30%), Method: PREINCUBATION",inactive; negative
same,mutagenic call,"Test System: AMES SALMONELLA TYPHIMURIUM, Strain/Indicator: TA97, Metabolic Activation: NONE, Method: PREINCUBATION",inactive; negative
same,mutagenic call,"Test System: AMES SALMONELLA TYPHIMURIUM, Strain/Indicator: TA97, Metabolic Activation: NONE, Method: STANDARD PLATE",inactive; negative
same,mutagenic call,"Test System: AMES SALMONELLA TYPHIMURIUM, Strain/Indicator: TA97, Metabolic Activation: RAT LIVER S-9, AROCLOR 1254 (10%), Method: PREINCUBATION",inactive; negative
same,mutagenic call,"Test System: AMES SALMONELLA TYPHIMURIUM, Strain/Indicator: TA97, Metabolic Activation: RAT LIVER S-9, AROCLOR 1254 (30%), Method: PREINCUBATION",inactive; negative
same,mutagenic call,"Test System: AMES SALMONELLA TYPHIMURIUM, Strain/Indicator: TA97, Metabolic Activation: S-9, Method: STANDARD PLATE",inactive; negative
same,mutagenic call,"Test System: AMES SALMONELLA TYPHIMURIUM, Strain/Indicator: TA98, Metabolic Activation: HAMSTER LIVER S-9, AROCLOR 1254 (10%), Method: PREINCUBATION",inactive; negative
same,mutagenic call,"Test System: AMES SALMONELLA TYPHIMURIUM, Strain/Indicator: TA98, Metabolic Activation: HAMSTER LIVER S-9, AROCLOR 1254 (30%), Method: PREINCUBATION",inactive; negative
same,mutagenic call,"Test System: AMES SALMONELLA TYPHIMURIUM, Strain/Indicator: TA98, Metabolic Activation: NONE, Method: PREINCUBATION",inactive; negative
same,mutagenic call,"Test System: AMES SALMONELLA TYPHIMURIUM, Strain/Indicator: TA98, Metabolic Activation: NONE, Method: STANDARD PLATE",inactive; negative
same,mutagenic call,"Test System: AMES SALMONELLA TYPHIMURIUM, Strain/Indicator: TA98, Metabolic Activation: RAT LIVER S-9, AROCLOR 1254 (10%), Method: PREINCUBATION",inactive; negative
same,mutagenic call,"Test System: AMES SALMONELLA TYPHIMURIUM, Strain/Indicator: TA98, Metabolic Activation: RAT LIVER S-9, AROCLOR 1254 (30%), Method: PREINCUBATION",inactive; negative
same,mutagenic call,"Test System: AMES SALMONELLA TYPHIMURIUM, Strain/Indicator: TA98, Metabolic Activation: RAT, LIVER, S-9, AROCLOR 1254, Method: STANDARD PLATE",inactive; negative
same,mutagenic call,"Test System: AMES SALMONELLA TYPHIMURIUM, Strain/Indicator: TA98, Metabolic Activation: S-9, Method: STANDARD PLATE",inactive; negative
same,mutagenic call,"Test System: AMES SALMONELLA TYPHIMURIUM, Strain/Indicator: TA100, Metabolic Activation: HAMSTER LIVER S-9, AROCLOR 1254 (10%), Method: PREINCUBATION",inactive; negative
same,mutagenic call,"Test System: AMES SALMONELLA TYPHIMURIUM, Strain/Indicator: TA100, Metabolic Activation: HAMSTER LIVER S-9, AROCLOR 1254 (30%), Method: PREINCUBATION",inactive; negative
same,mutagenic call,"Test System: AMES SALMONELLA TYPHIMURIUM, Strain/Indicator: TA100, Metabolic Activation: NONE, Method: PREINCUBATION",inactive; negative
same,mutagenic call,"Test System: AMES SALMONELLA TYPHIMURIUM, Strain/Indicator: TA100, Metabolic Activation: NONE, Method: STANDARD PLATE",inactive; negative
same,mutagenic call,"Test System: AMES SALMONELLA TYPHIMURIUM, Strain/Indicator: TA100, Metabolic Activation: RAT LIVER S-9, AROCLOR 1254 (10%), Method: PREINCUBATION",inactive; negative
same,mutagenic call,"Test System: AMES SALMONELLA TYPHIMURIUM, Strain/Indicator: TA100, Metabolic Activation: RAT LIVER S-9, AROCLOR 1254 (30%), Method: PREINCUBATION",inactive; negative
same,mutagenic call,"Test System: AMES SALMONELLA TYPHIMURIUM, Strain/Indicator: TA100, Metabolic Activation: RAT, LIVER, S-9, AROCLOR 1254, Method: STANDARD PLATE",inactive; negative
same,mutagenic call,"Test System: AMES SALMONELLA TYPHIMURIUM, Strain/Indicator: TA100, Metabolic Activation: S-9, Method: STANDARD PLATE",inactive; negative
same,mutagenic call,"Test System: AMES SALMONELLA TYPHIMURIUM, Strain/Indicator: TA102, Metabolic Activation: NONE, Method: STANDARD PLATE",inactive; negative
same,mutagenic call,"Test System: AMES SALMONELLA TYPHIMURIUM, Strain/Indicator: TA102, Metabolic Activation: RAT LIVER S-9, PHENOBARBITAL AND 5,6-BENZOFLAVONE, Method: STANDARD PLATE",inactive; negative
same,mutagenic call,"Test System: AMES SALMONELLA TYPHIMURIUM, Strain/Indicator: TA102, Metabolic Activation: S-9, Method: STANDARD PLATE",inactive; negative
same,mutagenic call,"Test System: AMES SALMONELLA TYPHIMURIUM, Strain/Indicator: TA1535, Metabolic Activation: HAMSTER LIVER S-9, AROCLOR 1254 (10%), Method: PREINCUBATION",inactive; negative
same,mutagenic call,"Test System: AMES SALMONELLA TYPHIMURIUM, Strain/Indicator: TA1535, Metabolic Activation: HAMSTER LIVER S-9, AROCLOR 1254 (30%), Method: PREINCUBATION",inactive; negative
same,mutagenic call,"Test System: AMES SALMONELLA TYPHIMURIUM, Strain/Indicator: TA1535, Metabolic Activation: NONE, Method: PREINCUBATION",inactive; negative
same,mutagenic call,"Test System: AMES SALMONELLA TYPHIMURIUM, Strain/Indicator: TA1535, Metabolic Activation: NONE, Method: STANDARD PLATE",inactive; negative
same,mutagenic call,"Test System: AMES SALMONELLA TYPHIMURIUM, Strain/Indicator: TA1535, Metabolic Activation: PAPS, Method: STANDARD PLATE",inactive; negative
same,mutagenic call,"Test System: AMES SALMONELLA TYPHIMURIUM, Strain/Indicator: TA1535, Metabolic Activation: RAT LIVER S-9, AROCLOR 1254 (10%), Method: PREINCUBATION",inactive; negative
same,mutagenic call,"Test System: AMES SALMONELLA TYPHIMURIUM, Strain/Indicator: TA1535, Metabolic Activation: RAT LIVER S-9, AROCLOR 1254 (30%), Method: PREINCUBATION",inactive; negative
same,mutagenic call,"Test System: AMES SALMONELLA TYPHIMURIUM, Strain/Indicator: TA1535, Metabolic Activation: RAT, LIVER, S-9, AROCLOR 1254, PAPS, Method: STANDARD PLATE",active; positive
same,mutagenic call,"Test System: AMES SALMONELLA TYPHIMURIUM, Strain/Indicator: TA1535, Metabolic Activation: RAT, LIVER, S-9, AROCLOR 1254, Method: STANDARD PLATE",inactive; negative
same,mutagenic call,"Test System: AMES SALMONELLA TYPHIMURIUM, Strain/Indicator: TA1537, Metabolic Activation: NONE, Method: STANDARD PLATE",inactive; negative
same,mutagenic call,"Test System: AMES SALMONELLA TYPHIMURIUM, Strain/Indicator: TA1537, Metabolic Activation: RAT, LIVER, S-9, AROCLOR 1254, Method: STANDARD PLATE",inactive; negative
same,mutagenic call,"Test System: AMES SALMONELLA TYPHIMURIUM, Strain/Indicator: TA1538, Metabolic Activation: NONE, Method: STANDARD PLATE",inactive; negative
same,mutagenic call,"Test System: AMES SALMONELLA TYPHIMURIUM, Strain/Indicator: TA1538, Metabolic Activation: RAT, LIVER, S-9, AROCLOR 1254, Method: STANDARD PLATE",inactive; negative
same,mutagenic call,"Test System: AMES SALMONELLA TYPHIMURIUM, Strain/Indicator: TA2638, Metabolic Activation: RAT LIVER S-9, PHENOBARBITAL AND 5,6-BENZOFLAVONE, Method: STANDARD PLATE",inactive; negative
same,mutagenic call,"Test System: CHINESE HAMSTER OVARY, Strain/Indicator: CHO/6-THIOGUANINE, Metabolic Activation: HAMSTER EMBRYO CELL-MEDIATED",inactive; negative
same,mutagenic call,"Test System: CHINESE HAMSTER OVARY, Strain/Indicator: CHO/6-THIOGUANINE, Metabolic Activation: NONE",inactive; negative
same,mutagenic call,"Test System: CHINESE HAMSTER OVARY, Strain/Indicator: CHO/OUABAIN, Metabolic Activation: HAMSTER EMBRYO CELL-MEDIATED",inactive; negative
same,mutagenic call,"Test System: CHINESE HAMSTER OVARY, Strain/Indicator: CHO/OUABAIN, Metabolic Activation: NONE",inactive; negative
same,mutagenic call,"Test System: CHINESE HAMSTER V-79, Strain/Indicator: V-79 (HGPRT)/6-THIOGUANINE, Metabolic Activation: NONE",inactive; negative
same,mutagenic call,"Test System: CHINESE HAMSTER V-79, Strain/Indicator: V-79 (HGPRT)/6-THIOGUANINE, Metabolic Activation: RAT, LIVER, S-9, PHENOBARBITAL AND BETA-NAPHTHOFLAVONE",inactive; negative
same,mutagenic call,"Test System: CHINESE HAMSTER V-79, Strain/Indicator: V-79/6-THIOGUANINE, Metabolic Activation: NONE, Method: REPLATING",active; positive
same,mutagenic call,"Test System: CHINESE HAMSTER V-79, Strain/Indicator: V-79/OUABAIN, Metabolic Activation: HAMSTER EMBRYO CELL-MEDIATED",inactive; negative
same,mutagenic call,"Test System: CHINESE HAMSTER V-79, Strain/Indicator: V-79/OUABAIN, Metabolic Activation: NONE",inactive; negative
same,mutagenic call,"Test System: CHINESE HAMSTER V-79, Strain/Indicator: V-79/OUABAIN, Metabolic Activation: RAT, LIVER, S-15, PHENOBARBITAL AND 5,6-BENZOFLAVONE",inactive; negative
same,mutagenic call,"Test System: E. COLI, Strain/Indicator: WP2 (PKM101), Metabolic Activation: RAT LIVER S-9, PHENOBARBITAL AND 5,6-BENZOFLAVONE, Method: STANDARD PLATE",inactive; negative
same,mutagenic call,"Test System: E. COLI, Strain/Indicator: WP2 UVRA (PKM101), Metabolic Activation: RAT LIVER S-9, PHENOBARBITAL AND 5,6-BENZOFLAVONE, Method: STANDARD PLATE",inactive; negative
same,mutagenic call,"Test System: MOUSE LYMPHOMA, Strain/Indicator: L5178Y (TK+/+)/OUABAIN, Metabolic Activation: NONE, Method: SUSPENSION/PLATE",active; positive
same,mutagenic call,"Test System: MOUSE LYMPHOMA, Strain/Indicator: L5178Y (TK+/+)/OUABAIN, Metabolic Activation: RAT LIVER S-9, AROCLOR 1254, Method: SUSPENSION/PLATE",active; positive
same,mutagenic call,"Test System: MOUSE LYMPHOMA, Strain/Indicator: L5178Y (TK+/-)/TRIFLUROTHYMIDINE, Metabolic Activation: NONE, Method: SUSPENSION/PLATE",active; positive
same,mutagenic call,"Test System: MOUSE LYMPHOMA, Strain/Indicator: L5178Y (TK+/-)/TRIFLUROTHYMIDINE, Metabolic Activation: RAT LIVER S-9, AROCLOR 1254, Method: SUSPENSION/PLATE",inactive; negative
same,mutagenic call,"Test System: MOUSE LYMPHOMA, Strain/Indicator: L5178Y (TK+/TK-), Metabolic Activation: NONE, Method: SUSPENSION/PLATE",inactive; negative
same,mutagenic call,"Test System: MOUSE LYMPHOMA, Strain/Indicator: L5178Y (TK+/TK-), Metabolic Activation: RAT, LIVER, S-9, Method: SUSPENSION/PLATE",active; positive
same,mutagenic call,"Test System: UDS RAT HEPATOCYTES, Strain/Indicator: THY INCORP, Metabolic Activation: NONE, Method: LIQUID SCINTILLATION COUNTING",active; positive
